From patent publication US20240344034A1, “Renal Progenitor Cells” (The University of Queensland, priority 2013, published 2024)

Legend:
Format in all cases: cell-based, human
[1] = tested on: hESC-induced posterior primitive streak; test: Intermediate mesoderm (IM) induction from hESC-induced posterior primitive streak (IF, qRT-PCR)
Method: (§1) HES3 (MIXL1^GFP/wt) cells were routinely cultured on irradiated MEF feeder cells in F12/DMEM (Life Technologies) supplemented with 20% KnockOut serum replacement (Life Technologies), 100 μM MEM NEAA (Life Technologies), 110 μM 2-mercaptoethanol (Life Technologies), 1×penicillin/streptomycin (Life Technologies), 1× Glutamax (Life Technologies) and 10 ng/mL bFGF (R&D systems). The day before starting differentiation, cells were plated at 12,000-15,000 cells/cm^2 on a Matrigel coated 96-well plate. After overnight culture, cells were exposed to 30 ng/mL BMP4 (R&D systems) and 10 ng/mL Activin A (R&D systems) or 8 μM CHIR99021 in a previously established serum free media APEL for 2-3 days, then 200 ng/mL FGF9 and 1 μg/mL Heparin in APEL media for 4 days to induce IM cells. Subsequently cells were exposed to 200 ng/mL FGF9, 50 ng/mL BMP7, 0.1 μM RA and 1 μg/mL Heparin for 4-11 days in case of BMP4/Activin A induction. In case of CHIR99021 induction, cells were exposed to 200 ng/mL FGF9 and 1 μg/mL Heparin for 6 days then cultured in APEL basal media for another 6 days. Media was changed every 2 days.
Cells were fixed with 4% Paraformaldehyde in PBS for 10 min at 4° C. followed by a wash with PBS. […]
(§2) Total RNA was extracted from cells using RNeasy micro kit (QIAGEN) and cDNA was synthesized from >100 ng RNA using Super Script III reverse transcriptase (Life Technologies). Quantitive RT-PCR (qRT-PCR) analyses were performed with Syber Green (Applied Biosystems) by ABI PRISM 7500 real-time PCR machine. […]
To quantify the proportion of differentiated cells positive for PAX2^+, LHX1^+, SOX17^+, SIX2^+ or WT1^+, cells were immunofluorescently stained with each antibody together with the nuclear stain, DAPI. The ratio of differentiated cells to total cells was manually counted using Image J in 1 or 2 representative fields per experiment (total 3-5 representative fields from 3 independent experiments, 1-1.5×10^3 cells in total), using an Olympus BX-51 microscope, 10× objective.

[2] = tested on: hESC-derived IM cells; test: Differentiation of IM to ureteric epithelium and metanephric mesenchyme/nephron progenitors (IF, PCR); conditions: for production of mesenchyme (HOXD11, SIX2, SIX1, WT1, EYA1 expression): CHIR99021 at 1 μM through Stage 2 and 3 and RA antagonist added
Method: as §1
Cells were fixed with 4% Paraformaldehyde in PBS for 10 min at 4° C. followed by a wash with PBS. Then cells were blocked with 1% BSA, 0.2% milk, 0.3% Triton X/PBS for 1 hr at RT and incubated with primary antibodies overnight at 4° C.
Secondary antibodies were incubated for 1 hr at RT. The following antibodies and dilutions were used: rabbit anti-PAX2 (1:200, #71-6000, Zymed Laboratories Inc.), goat anti-OSR1 (1:75, #sc-67723, Santa Cruz Biotechnology), goat anti-LHX1 (1:75, #sc-19341, Santa Cruz Biotechnology), mouse anti-TBX6 (1:200, AF4744, R&D systems), goat anti-SOX17 (1:200, #AF1924, R&D systems), rabbit anti-SIX2 (1:200, #11562-1-AP, Proteintech), mouse anti-ECAD (1:200, #610181, BD Biosciences), rabbit anti-WT1 (1:100, #sc-192, Santa Cruz Biotechnology), mouse anti-HOXD11 (1:200, #SAB1403944, Sigma-Aldrich), goat anti-GATA3 (1:200, AF2605, R&D systems), rabbit anti-JAG1 (1:200, #ab7771, Abcam), rabbit anti-CDH6 (1:100, #HPA007047, Sigma Aldrich) and goat anti-SYNPO (1:200, #sc-21537, Santa Cruz Biotechnology). Secondary antibodies were: Alexa-488-conjugated goat anti-rabbit, Alexa-594-conjugated donkey anti-rabbit, Alexa-488-conjugated donkey anti-goat and Alexa-594-conjugated goat anti-mouse (1:250, Life Technologies). Images were taken using Nikon Ti—U microscope or Zeiss LSM 510 Meta UV confocal microscope. […]
as §2

[3] = tested on: reporter hESC line, MIXL1GFP/wt; test: Posterior primitive streak induction from MIXL1-GFP reporter hESC (FACS, qRT-PCR)
Method: as §1, with “Media was changed every 2 days.” left out
as §2

CCN(CC)CCCCNc1ncc2cc(-c3cc(OC)cc(OC)c3)c(NC(=O)NC(C)(C)C)nc2n1 [PD173074]
PAX2 and LHX1 induction in response to FGF2 or FGF9 ([1]; day 6, FGF 200 ng/ml day 2 to 6): dramatically inhibited

Cc1c[nH]c(-c2cnc(NCCNc3ccc(C#N)cn3)nc2-c2ccc(Cl)cc2Cl)n1 [CHIR99021]
production of mesenchyme (HOXD11, SIX2, SIX1, WT1, EYA1 expression) [2]: improved
Stage 1 concentration giving optimal ratio of epithelium to nephron progenitors ([2]; first 2 days in culture, cultured out to day 18, 6 μM better than 8 μM): 6 µM
concentration optimal for posterior primitive streak ([3]; comparative expression of MIXL1, T, SOX17, 5, 7, 9 μM tested): > 7 µM
cells became GFP+ (MIXL1-GFP positive posterior primitive streak cells) ([3]; high BMP4/low Activin A (30/10 ng/mL) or high CHIR99021, 3 days culture, FACS): approximately 90%

Cc1ccc(C2=CCC(C)(C)c3ccc(C#Cc4ccc(C(=O)O)cc4)cc32)cc1 [AGN193109]
production of mesenchyme (HOXD11, SIX2, SIX1, WT1, EYA1 expression) [2]: improved

B1: FGF8: FGF family member (protein, UniProt P55075 23-233, looked up)
Fibroblast growth factor 8: QEGPGRGPALGRELASLFRAGREPQGVSQQHVREQSLVTDQLSRRLIRTYQLYSRTSGKHVQVLANKRINAMAEDGDPFAKLIVETDTFGSRVRVRGAETGLYICMNKKGKLIAKSNGKGKDCVFTEIVLENNYTALQNAKYEGWYMAFTRKGRPRKGSKTRQHQREVHFMKRLPRGHHTTEQSLRFEFLNYPPFTRSLRGSQRTWAPEPR
coexpression of OSR1, PAX2 and LHX1 (IM induction) ([1]; 200 ng/mL FGF for 4 days): not

B2: BMP7: bone morphogenic protein 7 (protein, UniProt P18075 293-431, looked up)
Bone morphogenetic protein 7: STGSKQRSQNRSKTPKNQEALRMANVAENSSSDQRQACKKHELYVSFRDLGWQDWIIAPEGYAAYYCEGECAFPLNSYMNATNHAIVQTLVHFINPETVPKPCCAPTQLNAISVLYFDDSSNVILKKYRNMVVRACGCH
effect on mesenchyme ([2]; BMP7 together with FGF9 in Stage 3): slightly improves the mesenchyme

B3: NOG: BMP antagonist NOG (noggin) (protein, UniProt Q13253 28-232, looked up)
Noggin: QHYLHIRPAPSDNLPLVDLIEHPDPIFDPKEKDLNETLLRSLLGGHYDPGFMATSPPEDRPGGGGGAAGGAEDLAELDQLLRQRPSGAMPSEIKGLEFSEGLAQGKKQRLSKKLRRKLQMWLWSQTFCPVLYAWNDLGSRFWPRYVKVGSCFSKRSCSVPEGMVCKPSKSVHLTVLRWRCQRRGGQRCGWIPIQYPIISECKCSC
FOXF1 (LPM marker) expression ([1]; NOG together with FGF9 from day 2 to 6, qRT-PCR day 6): effectively suppressed
